Patent publication US20220177587A1, “METHODS AND USES OF VARIANT CD80 FUSION PROTEINS AND RELATED CONSTRUCTS” (Alpine Immune Sciences, Inc., priority 2018, published 2022)

Key:
PD-L1/PD-1 interaction = molecular target: T1, PD-L1/PD-1 interaction (Homo sapiens, UniProt Q9NZQ7); assay: PD-L1/PD-1 binding and blocking on CHO/PD-L1 cells; conditions: fluorescently conjugated PD-1-Fc; FIG. 7
T1 construct: expressed in transfected cells
Experimental: Binding of selected immunomodulatory fusion proteins to cells expressing PD-L1 was assessed to test for blocking of the PD-L1/PD-1 interaction. […] Samples were acquired on a flow cytometer and MFIs of the fluorescently labeled PD-1 were determined by Flowjo software analysis.
The multivalent variant CD80 IgSF domain fusion proteins were assessed to test for blocking of the PD-L1/PD-1 and CTLA-4/CD80 interaction performed substantially as described in Example 15. CHO/OKT3/PD-L1 and CHO/CTLA-4 cells were counted and plated at 100,000 cells/well and then incubated with fluorescently conjugated PD-1-Fc and CD80-Fc. Exemplary multivalent variant CD80 IgSF domain fusion proteins were incubated with the cells for 30 minutes. […] Cells were washed and incubated with 100 nM fluorescently conjugated PD-1-Fc and CD80-Fc competitor for 30 minutes. Cells were then washed and samples were acquired on a flow cytometer and MFIs of the fluorescently labeled molecules were determined.

MC38 hPD-L1 tumor cells [1] = assay: MC38 hPD-L1 tumor model in C57BL/6 mice; format: in vivo, mouse
Experimental: Mouse MC38 tumor cells were stably transfected with human PD-L1 (MC38 hPD-L1) and implanted subcutaneously into C57BU6 mice. […] Tumor volume was tracked over time.
70 female C57CL/6 mice, containing similar tumor volumes of approximately 50-51 mm^3, following implantation of MC38 hPD-L1 tumor cells, were staged and divided into 5 treatment groups containing 14 mice each. […] Tumor volumes were measured on days 7, 10, and 12. On day 13, 5 animals were sacrificed for analysis as described in the sections below. Tumor measurements resumed for the remaining 9 mice for each group on days 17, 20 and 27. On days 26, 28, and 31, the animals in Group 1 (Fc isotype control) received an intratumoral injection of 100 μg E35D/M47L CD80-IgV-Fc.
95 female C57BU6 mice were implanted with MC38 hPD-L1 tumor cells. The tumors were staged on Day 7, and 77 mice with similar tumor volumes of approximately 60 mm^3 were divided into 7 treatment groups containing 11 mice each.
On day 49, tumor-free mice, from Groups 3, 4, 6, and 7, and 2 naïve C57CL/6 mice were re-challenged with an additional injection of hPD-L1 MC38 cells. Tumor volumes were measured on days 56, 59, and 63. The results are depicted in FIG. 13. […] At day 59, 8/8 mice from Group 3, 1/2 mice from Group 4, 1/1 mouse from Group 6, and 2/2 mice from Group 7 were tumor-free, and by day 63, all mice in Group 3, Group 4, Group 6, and Group 7 were tumor-free.
75 animals were staged into 3 treatment groups 7 days after implantation with hPD-L1 MC38 tumor cells. […] Tumor volumes were measured every 3-4 days, from Day 11 until Day 35. 3 days after the 1st dose, 2nd dose and 3rd dose, 4 mice from each group were sacrificed for tumor and LN analyses, leaving 13 mice for tumor volume measurements throughout the study period.

MC38 hPD-L1 tumor cells [2] = assay: Flow cytometry of tumors and draining lymph nodes of treated mice; format: in vivo, mouse; conditions: three days following the 2nd dose; vs Fc control or anti-PD-L1
Text: Tissues were processed to single cell suspensions (tumors were enzymatically digested as a part of the processing, whereas draining LN were not), and subjected to multi-color flow cytometric analysis of CD8+ T cells on the CD45+ cell subset (immune cells in either the LN or tumor), as well as % hIgG+ staining on the CD45− cell subset (tumor cells) to detect molecules (CD80-IgV-Fc or anti-PD-L1) bound to the tumor cells.

huPD-L1/MC38 cells [3] = assay: huPD-L1 MC38 tumor model, combination with oxaliplatin; format: in vivo, mouse
Experimental: To test the anti-tumor activity of the exemplary variant, it was evaluated alone or in combination with the platinum-based chemotherapeutic agent, oxaliplatin, in mice bearing human PD-L1-expressing MC38 tumors, which is a syngeneic mouse colon carcinoma solid tumor model.
The huPD-L1 MC38 cell line was generated by transducing parental MC38 cells with huPD-L1 using viral transduction. Eight-week old female C57/BL6NJ mice (The Jackson Laboratories, Sacramento, Calif.) were implanted subcutaneously with 0.5×10^6 huPD-L1/MC38 cells. For injections, 0.1 mL of cells (0.5×10^6 cells) were injected subcutaneously (SC) in the right mid-flank region.
On day 1, mice were randomized into four groups of 10 mice each, with all mice in each group having about equal mean tumor volumes (˜108 mm^3). Tumors were measured with electronic calipers two-dimensionally twice weekly, beginning on day 7 post-tumor cell implant (referred to as “day 1”). Tumor volume was calculated as length×(width×2)×0.5, with the length being the longer of the two measurements.
As shown, 30% of the mice in the monotherapy group were tumor free by the end of the study.

huPD-L1/MC38 cells [4] = assay: huPD-L1 MC38 tumor model, combination with anti-CTLA-4; format: in vivo, mouse
Experimental: Eight-week old female C57/BL6NJ mice (The Jackson Laboratories, Sacramento, Calif.) were implanted subcutaneously with 1.5×10^6 huPD-L1/MC38 cells (described in Example 27. On days 8, 11 or 14 post-tumor cell implant mice, the tested molecules were delivered through intraperitoneal (IP) injection as set forth in Table E40. Tumor volume was determined substantially as described in Example 27.

[5] = 3 injections of 100 μg on Days 8, 10 and 12
[6] = re-challenged on day 49 with hPD-L1 MC38 cells
[7] = in combination with oxaliplatin

T1 sequence (Q9NZQ7 19-290): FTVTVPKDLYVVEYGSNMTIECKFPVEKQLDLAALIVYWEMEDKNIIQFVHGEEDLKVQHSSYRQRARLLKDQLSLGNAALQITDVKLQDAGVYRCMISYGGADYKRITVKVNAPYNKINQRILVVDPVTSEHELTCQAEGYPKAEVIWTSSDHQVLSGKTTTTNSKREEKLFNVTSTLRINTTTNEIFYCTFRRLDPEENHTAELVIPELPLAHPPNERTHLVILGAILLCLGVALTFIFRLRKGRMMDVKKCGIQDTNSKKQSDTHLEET

H18Y/A26E/E35D/M47L/V68M/A71G/D90G: variant CD80 IgV-Fc (inert), IgV SEQ ID NO:491
blocking of binding of PD-1 to PD-L1 (PD-L1/PD-1 interaction): antagonize or block binding of PD-1 to PD-L1
mice with no detectable tumors (tumor-free) upon completion of the study (MC38 hPD-L1 tumor cells [1]; 100 μg on days 7, 9 and 11, 11 mice per group): 8 mice
tumor-free mice at day 35 (MC38 hPD-L1 tumor cells [1]; [5]): 6/13
tumor-free mice on Day 18 (MC38 hPD-L1 tumor cells [1]; [5]): 6/13
tumor growth / tumor volume (MC38 hPD-L1 tumor cells [1]; i.p. dosing, compared to Fc control or anti-PD-L1): greater decrease in the median and mean tumor volumes
tumor-free mice after re-challenge, day 59 (MC38 hPD-L1 tumor cells [1]; [6]): 8/8
tumor-free mice after re-challenge, day 63 (MC38 hPD-L1 tumor cells [1]; [6]): tumor-free
percentages of CD8+ T cells in TIL and LN (MC38 hPD-L1 tumor cells [2]): significantly greater
tumor free mice (huPD-L1/MC38 cells [3]; [7]): 90%
tumor growth over time (huPD-L1/MC38 cells [3]; [7]): significantly greater reductions in tumor growth over time were observed than with either of the agents alone
mean TGI (huPD-L1/MC38 cells [3]; in combination with oxaliplatin, day 25): ~100%
median tumor volume (huPD-L1/MC38 cells [3]; in combination with oxaliplatin, eleven days after start of dosing): dropped to zero
antitumor activity (huPD-L1/MC38 cells [3]; monotherapy): had potent antitumor activity
tumor free mice by the end of the study (huPD-L1/MC38 cells [3]; monotherapy): 30%
tumor growth over time (huPD-L1/MC38 cells [4]; in combination with anti-CTLA-4): significantly greater reduction in tumor growth over time was observed than with either agent alone
antitumor activity (huPD-L1/MC38 cells [4]; monotherapy): had potent antitumor activity
